Data reported in article PMC6347603, “N^+-C-H···O Hydrogen bonds in protein-ligand complexes” (Scientific Reports, 2019).

Experiments:
G9a-like protein (GLP) = biological target: T1, G9a-like protein (GLP) (Homo sapiens, UniProt Q9H9B1); experiment: GLP activity assay (GLP Chemiluminescent Assay Kit); format: biochemical; details: for IC50: 2 μM SAM, 40 ng GLP, 120 min, room temperature, mean values of at least three experiments, read-out: In vitro GLP-inhibitory activity IC50
T1 construct: purchased BPS Bioscience, Inc. 53007
T1 sequence (Q9H9B1 1-1298): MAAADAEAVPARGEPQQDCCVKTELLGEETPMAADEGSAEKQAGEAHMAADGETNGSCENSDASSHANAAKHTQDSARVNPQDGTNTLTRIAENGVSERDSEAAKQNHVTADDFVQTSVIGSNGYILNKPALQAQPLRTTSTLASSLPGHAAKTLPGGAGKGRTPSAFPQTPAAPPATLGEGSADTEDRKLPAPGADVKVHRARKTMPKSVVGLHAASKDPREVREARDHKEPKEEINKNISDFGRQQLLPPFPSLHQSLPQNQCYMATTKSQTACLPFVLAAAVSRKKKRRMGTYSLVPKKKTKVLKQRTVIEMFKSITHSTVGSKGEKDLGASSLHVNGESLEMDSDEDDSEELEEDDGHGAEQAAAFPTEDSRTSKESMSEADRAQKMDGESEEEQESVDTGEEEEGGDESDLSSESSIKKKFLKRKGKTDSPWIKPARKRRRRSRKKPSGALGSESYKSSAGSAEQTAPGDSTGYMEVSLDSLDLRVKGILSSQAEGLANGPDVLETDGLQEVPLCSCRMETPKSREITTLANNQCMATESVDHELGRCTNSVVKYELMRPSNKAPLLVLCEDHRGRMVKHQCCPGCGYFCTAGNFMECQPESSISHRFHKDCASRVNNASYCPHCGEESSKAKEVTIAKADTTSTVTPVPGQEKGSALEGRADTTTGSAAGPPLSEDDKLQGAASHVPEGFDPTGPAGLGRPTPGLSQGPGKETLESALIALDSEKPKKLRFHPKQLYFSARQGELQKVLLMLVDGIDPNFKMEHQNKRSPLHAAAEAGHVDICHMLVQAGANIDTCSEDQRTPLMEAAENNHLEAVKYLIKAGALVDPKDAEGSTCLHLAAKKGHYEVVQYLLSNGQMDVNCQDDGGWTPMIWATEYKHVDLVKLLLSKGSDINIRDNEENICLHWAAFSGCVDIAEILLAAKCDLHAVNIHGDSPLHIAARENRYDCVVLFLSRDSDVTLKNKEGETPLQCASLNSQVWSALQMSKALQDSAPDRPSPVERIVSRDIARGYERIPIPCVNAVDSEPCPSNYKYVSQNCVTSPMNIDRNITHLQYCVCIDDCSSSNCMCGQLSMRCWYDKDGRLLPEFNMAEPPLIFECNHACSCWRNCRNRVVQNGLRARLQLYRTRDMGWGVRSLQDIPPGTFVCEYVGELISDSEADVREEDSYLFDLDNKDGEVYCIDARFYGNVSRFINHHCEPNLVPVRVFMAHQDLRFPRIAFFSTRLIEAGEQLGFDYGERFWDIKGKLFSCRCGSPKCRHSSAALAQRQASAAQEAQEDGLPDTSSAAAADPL
Procedure: The GLP activity assay was carried out using a GLP Chemiluminescent Assay Kit (Catalog #53007, BPS Bioscience, Inc.). Microwells were rehydrated by adding 200 μL of tris buffered saline with Tween 20 (TBS-T: 1x TBS, pH = 8.0, containing 0.05% Tween-20) to every well, followed by incubation at room temperature for 45 minutes. After removing TBS-T, the inhibitors were incubated in the presence of 2 μM SAM and 40 ng of GLP in the supplied buffer on the microwells of (120 min, room temperature, total volume: 50 μL). After the enzymatic reaction, every well was washed three times with TBS-T (100 μL) and blocked for 10 min with blocking buffer. Then, 100 μL of primary anti-body solution (1:400 dilution) were added to the microwells, followed by incubation (2 h). The wells were probed with the primary antibody, washed three times with TBS-T (100 μL), incubated (2 h, room temperature) with sheep secondary anti-body (1:1000 diluted), and again washed three times with TBS-T (100 μL). The chemiluminescence of the wells, to which detection reagents were added, was measured on a chemiluminescence reader (ARVO X3 Multilabel Plate Reader), and the values of % inhibition were calculated from the chemiluminescence readings of inhibited wells relative to those of control wells.

GLP recombinant protein = biological target: T2, GLP recombinant protein (Homo sapiens, UniProt Q9H9B1); experiment: Isothermal titration calorimetry (ITC) of GLP inhibitors binding to GLP; details: 25 °C, 20 mM Tris pH 8.0, 150 mM NaCl, 2% DMSO, 50 μM AdoMet; for Kd: 10 μM GLP, 100 μM inhibitor, one-site binding model, read-out: dissociation constant KD (ITC); for −TΔS (ITC): calculated from ΔG = ΔH − TΔS
T2 construct: purchased Active Motif, Inc. 31920
T2 sequence (Q9H9B1 1-1298): T1 sequence (Q9H9B1 1-1298)
Procedure: A GLP recombinant protein solution (Catalog #31920, Active Motif, Inc.) was concentrated by ultrafiltration and the buffer was replaced with test buffer (20 mM Tris pH 8.0, 150 mM NaCl, 2% DMSO and 50 μM AdoMet). ITC measurements of GLP inhibitors binding to the GLP were recorded at 25 °C using a MicroCal PEAQ-ITC microcalorimeter (Malvern Panalytical) in the test buffer. The titrations were performed using 10 μM GLP solution in the sample cell and 100 μM inhibitor solution in the syringe. A typical experiment consisted of 19 injections under the following parameters: one injection of 0.4 μL followed by 18 injections of 2.0 μL; 150 s spacing between injections; 750 rpm stirring speed; and reference power set to 5 μcal s^−1. The heat of dilution of the ligand into the buffer measured independently was essentially similar to the heat signal obtained at the end of the titration; so the signal of the last injection was used as the background heat signal. The experimental data were analyzed using the MicroCal PEAQ-ITC Analysis software (Malvern Panalytical), and fitted using the one-site binding model. Values of ΔG, KD, and −TΔS were calculated using the thermodynamic relationships, ΔG = −RT lnKa, KD = 1/Ka, and ΔG = ΔH − TΔS.
Figure S20. Determination of the disassociation constant and thermodynamic parameters of 14a–14c by isothermal titration calorimetry (ITC). (A–C) The binding of (A) 14a, (B) 14b and (C) 14c to GLP are measured by ITC. The titrations were conducted in buffer containing 20 mM Tris pH 8.0, 150 mM NaCl, 2% DMSO and 50 μM AdoMet. The sample chamber and syringe were filled with 10 μM GLP and 100 μM inhibitor, respectively. (D) Summary of disassociation constant and thermodynamic parameter profiles of 14a–14c.

Row | IC50 (G9a-like protein (GLP)) | ΔH (ITC) (GLP recombinant protein) | Kd (GLP recombinant protein) | −TΔS (ITC) (GLP recombinant protein) | GLP inhibition (result in words) (G9a-like protein (GLP); up to 3 μM) | Structure (SMILES)
1 | 156 nM | -10.7 kcal/mol | 171 nM | 1.42 kcal/mol | – | COc1cc2nc(NCCCN(C)C)nc(NC3CCN(Cc4ccccc4)CC3)c2cc1OC [Compound 14a]
2 | – | – | – | – | did not show any GLP inhibition | COc1cc2nc(NCCCC(C)C)nc(NC3CCN(Cc4ccccc4)CC3)c2cc1OC [Compound 14d]
3 | 1450 nM | -7.04 kcal/mol | 944 nM | -1.19 kcal/mol | – | COc1cc2nc(NCCCN)nc(NC3CCN(Cc4ccccc4)CC3)c2cc1OC [Compound 14c]
4 | 664 nM | -8.58 kcal/mol | 617 nM | 0.10 kcal/mol | – | CNCCCNc1nc(NC2CCN(Cc3ccccc3)CC2)c2cc(OC)c(OC)cc2n1 [Compound 14b, N^4-(1-Benzylpiperidin-4-yl)-6,7-dimethoxy-N^2-[3-(methylamino)propyl]quinazoline-2,4-diamine]
